Our source for the IC50 values is patent publication US10961200B2, “Small molecule inhibitors of lactate dehydrogenase and methods of use thereof” (THE UNITED STATES OF AMERICA, AS REPRESENTED BY THE …, priority 2014, dated 2021).

One experiment concerns the target Human LDHA (Homo sapiens (Human), UniProt P00338). In words: human LDHA primary biochemical assay (resazurin/diaphorase coupled, fluorescence). To be noted: LDHA inhibitory activity, assay of Example 1; activity level classes. The source says: Test compounds were placed in a Greiner Bio-One (Monroe, N.C.) 1536-well black solid bottom assay plate. 200 millimolar (mM) Tris HCl, pH 7.4, 100 micromolar […] EDTA and 0.01% TWEEN-20™, final concentration, was used as the assay buffer. The LDHA reagent was 2 nanomolar (nM) Human LDHA (Meridian Life Science, Inc., Memphis, Tenn.), final concentration, in assay buffer.
`CCOC(=O)c1csc(-n2nc(-c3ccc(F)c(-c4cccc(F)c4)c3)c(Cc3ccc(S(N)(=O)=O)cc3F)c2CC2CC2)n1` [Compound 316] yielded an IC50 of 1000 to 57000 nM. On the same count and under the same terms, then `NS(=O)(=O)c1ccc(Cc2c(-c3ccc(F)c(-c4ccc(F)cc4)c3)nn(-c3nc(C(=O)O)cs3)c2C2CC2)c(F)c1` [Compound 254], with below 100 nM; and `O=C(O)c1csc(-n2nc(-c3cc(F)cc(F)c3)cc2O)n1` [Compound 95, 2-(3-(3,5-difluorophenyl)-5-hydroxy-1H-pyrazol-1-yl)thiazole-4-carboxylic acid], with above 57000 nM; and `COc1cccc(-c2cc(-c3nn(-c4nc(C(=O)O)cs4)c(C(F)(F)F)c3Cc3ccc(S(N)(=O)=O)cc3)ccc2F)c1` [Compound 242], with below 100 nM. Molecule `NS(=O)(=O)c1ccc(Cc2c(-c3ccccc3)nn(-c3nc(C(=O)O)cs3)c2C(F)(F)F)cc1` [Compound 44, 2-(3-phenyl-4-(4-sulfamoylbenzyl)-5-(trifluoromethyl)-1H-pyrazol-1-yl)thiazole-4-carboxylic acid] yielded a 50% inhibitory concentration (IC50) below 100 nM.

For `N[S+](=O)([O-])c1ccc(Cc2c(-c3cccc(-c4ccc(F)cc4)c3)nn(-c3nc(C(=O)O)cs3)c2C(F)(F)F)cc1` [Compound 312], the IC50 was below 100 nM. The same measure, in the same setting: the result for `COc1cccc(-c2cc(-c3nn(-c4nc(C(=O)O)cs4)c(CC4CC4)c3Cc3ccc(S(N)(=O)=O)cc3F)ccc2F)c1` [Compound 328] reads below 100 nM. In turn, `NS(=O)(=O)c1ccc(Oc2c(C3CCCC3)nn(-c3nc(C(=O)O)cs3)c2-c2ccccc2)cc1` [Compound 174, 2-(3-cyclopentyl-5-phenyl-4-(4-sulfamoylphenoxy)-1H-pyrazol-1-yl)thiazole-4-carboxylic acid] came in with an IC50 of 1000 to 57000 nM.

The same experiment, now with this note: read-out: Inhibitory activity IC50.
As to `Cc1noc(C)c1-c1cc(-c2c(Cc3ccc(S(N)(=O)=O)c(F)c3)c(CC3CC3)nn2-c2nc(C(=O)O)cs2)ccc1F` [Compound 220, 2-(3-(cyclopropylmethyl)-5-(3-(3,5-dimethylisoxazol-4-yl)-4-fluorophenyl)-4-(3-fluoro-4-sulfamoylbenzyl)-1H-pyrazol-1-yl)thiazole-4-carboxylic acid], the IC50 is above 57000 nM. Turning to `Cc1csc(-c2cc(-c3c(Cc4ccc(S(N)(=O)=O)c(F)c4)c(CC4CC4)nn3-c3nc(C(=O)O)cs3)ccc2F)c1` [Compound 224, 2-(3-(cyclopropylmethyl)-5-(4-fluoro-3-(4-methylthiophen-2-yl)phenyl)-4-(3-fluoro-4-sulfamoylbenzyl)-1H-pyrazol-1-yl)thiazole-4-carboxylic acid], the half-maximal inhibitory concentration (IC50) was above 57000 nM. Still for that read-out and setting: the result for `Cc1csc(-c2cc(-c3c(Cc4ccc(S(N)(=O)=O)cc4F)c(CC4CC4)nn3-c3nc(C(=O)O)cs3)ccc2F)c1` [Compound 222, 2-(3-(cyclopropylmethyl)-5-(4-fluoro-3-(4-methylthiophen-2-yl)phenyl)-4-(2-fluoro-4-sulfamoylbenzyl)-1H-pyrazol-1-yl)thiazole-4-carboxylic acid] reads above 57000 nM; that for `N[S+](=O)([O-])c1ccc(Cc2c(Cc3ccccc3)nn(-c3nc(C(=O)O)cs3)c2-c2ccccc2)cc1` [Compound 275], 1000 to 57000 nM. Consider `NS(=O)(=O)c1ccc(Cc2cn(-c3nc(C(=O)O)cs3)c3ccc(C(=O)N4CCOCC4)cc23)cc1` [Compound 30, 2-(5-(morpholine-4-carbonyl)-3-(4-sulfamoylbenzyl)-1H-indol-1-yl)thiazole-4-carboxylic acid], for which the IC50 lay within 1000 to 57000 nM. The same measure, in the same setting: then `Cc1ccc(-c2cccc(-c3c(Cc4ccc([S+](N)(=O)[O-])cc4)c(CC4CC4)nn3-c3nc(C(=O)O)cs3)c2)cc1` [Compound 280], with 1000 to 57000 nM; and `CCOC(=O)c1csc(-n2nc(-c3ccccc3)c(Cc3ccc(S(N)(=O)=O)cc3)c2C(F)(F)F)n1` [Compound 77, ethyl 2-(3-phenyl-4-(4-sulfamoylbenzyl)-5-(trifluoromethyl)-1H-pyrazol-1-yl)thiazole-4-carboxylate], with 1000 to 57000 nM.
